Measured values reported in patent US4218443A, “Polyether ionophores as antiobesity and hypotriglyceridemic agents” (Hoffmann-La Roche Inc., priority 1979, dated 1980).

How the values were obtained:
human pancreatic lipase = biological target: T1, human pancreatic lipase (Homo sapiens, UniProt P16233); test: In vitro titrimetric (Radiometer pH-stat) pancreatic lipase assay, Dixon plots; assay type: biochemical; conditions: Dixon plots
T1 construct: Human pancreatic juice was obtained from a patient with acute pancreatitis; from tissue; host or cells: human pancreatic juice from the cannulated duct of a patient with acute pancreatitis; gift of Dr. George Nardi, Massachusetts General Hospital
T1 sequence (P16233 17-465): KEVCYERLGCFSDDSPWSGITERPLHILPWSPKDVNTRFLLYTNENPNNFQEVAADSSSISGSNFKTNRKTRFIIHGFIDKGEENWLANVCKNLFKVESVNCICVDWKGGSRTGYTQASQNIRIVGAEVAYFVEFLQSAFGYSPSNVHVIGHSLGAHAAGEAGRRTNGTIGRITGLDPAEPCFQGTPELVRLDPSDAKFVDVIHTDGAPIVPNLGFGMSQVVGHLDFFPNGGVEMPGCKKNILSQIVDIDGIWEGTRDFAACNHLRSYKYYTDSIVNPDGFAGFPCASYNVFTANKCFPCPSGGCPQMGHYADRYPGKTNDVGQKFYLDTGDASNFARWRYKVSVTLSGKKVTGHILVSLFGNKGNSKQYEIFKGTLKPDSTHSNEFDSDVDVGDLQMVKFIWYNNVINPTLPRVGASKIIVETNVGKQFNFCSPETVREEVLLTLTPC

[1] = system: intestinal absorption of triglycerides (corn oil); test: In vivo absorption of triglycerides (corn oil absorption); conditions: Experiment 2, sodium
pancreatic lipase = biological target: T2, pancreatic lipase (Rattus norvegicus, UniProt P27657); test: In vitro pancreatic lipase screen ([14C]-triolein assay); assay type: biochemical; conditions: read-out: Pancreatic Lipase Activity I50
T2 construct: stimulated to release pancreatic proteins by addition of 10^-5 M carbachol; from tissue; host or cells: pancreatic lobules of fasted Charles River female rats; released pancreatic juice, centrifuged
T2 sequence (P27657 17-465): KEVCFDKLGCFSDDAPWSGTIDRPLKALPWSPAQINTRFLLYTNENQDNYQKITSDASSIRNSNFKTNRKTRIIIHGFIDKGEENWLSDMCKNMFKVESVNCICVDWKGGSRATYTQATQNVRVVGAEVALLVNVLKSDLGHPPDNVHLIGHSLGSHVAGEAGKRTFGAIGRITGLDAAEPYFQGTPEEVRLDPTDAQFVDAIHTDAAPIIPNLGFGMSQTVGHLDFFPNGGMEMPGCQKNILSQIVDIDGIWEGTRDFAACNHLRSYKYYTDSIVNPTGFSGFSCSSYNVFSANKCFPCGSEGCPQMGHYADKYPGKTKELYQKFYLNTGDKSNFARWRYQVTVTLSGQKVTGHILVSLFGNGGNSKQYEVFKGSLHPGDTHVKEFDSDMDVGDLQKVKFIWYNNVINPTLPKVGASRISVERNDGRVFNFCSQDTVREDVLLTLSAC
Procedure: The method for assaying pacreatic lipase in vitro using [^14 C]-triolein was based on the method of Garfinkel and Schotz for lipoprotein lipase, [A. S. Garfinkel and M. C. Schotz (1972). […] Glycerol tri[1-^14 C]oleate (32 mM) was emulsified in 0.2 M Tris-HCl pH 8 containing 0.15 M NaCl, bovine serum albumin (15 mg/ml) and sodium taurocholate (1.4 mM) by sonication for three, one min intervals at 80 watts. Final assay volume was 1.0 ml. The reaction was initiated by the addition of enzyme and was allowed to proceed for 10 min. The reaction was linear for up to 20 min. The liberated free fatty acids were extracted into 0.1 M KOH and quantitated in a liquid scintillation counter using 2,5-bis-2-(5-tertbutylbenzoxazolyl)-tniophene (BBOT) scintillation fluid (Yorktown Research, South Hackensack, N.J.).
Ionophores were added to the above assay as solutions in either 90% ethanol or water, pH 8; 90% ethanol had no effect on the enzyme activity assayed by either method.

[2] = system: female Charles River rats; test: Chronic 31 day dietary admix experiment; assay type: in vivo, Charles River rat; conditions: 31 days; for Body Weight Gain / Body Weight final / Fat Absorption / Food Consumption / Food Efficiency / Serum Cholesterol / Serum Free Fatty Acids / Serum Glucose / Serum IRI (immunoreactive insulin) / Serum Triglycerides: sodium salt, mean ± SE
From the text: Faster enzymatic procedure for serum triglycerides, Clinical Chemistry, 21: 1983-1985], cholesterol, [C. C. Allain, L. Poon, S. G. Chan, W. Richmond and P. Fu (1974). Enzymatic determination of total serum cholesterol, Clinical Chemistry, 20: 470-475] and glucose, [R. Konig, H. Dauwalder and R. Richterich (1971). Vergleichende Bestimmungen der Uringlucosekonzentration mit der Polarimetrie und einer enzymatischen Methode (Hexokinase/Glucose-6-Phosphat-Dehydrogenase), Schweiz. Med. Wschr., 101: 860-866], by enzymatic procedures and free fatty acids, [C. Dalton and C. Kowalski (1967). Automated colorimetric determination of free fatty acids in biologic fluids, Clinical Chemistry, 13: 744-751], by a Colorimetric procedure. Serum immunoreactive insulins were determined by radioimmunoassay, [G. F. Bryce, P. R. Johnson, A. C. Sullivan, J. S. Stern (1977). Insulin and glucagon: Plasma levels and pancreatic release in the gentically obese Zucker rat, Hormone and Metabolic Research, 9: 366-370].
FIG. 2 sets forth body weight gain values of rats matched for initial body weight and pair fed 10% corn oil diet without dinitrodescarboxylasalocid and three groups of pair fed rats receiving 60, 120 and 240 mg/kg of dinitrodescarboxylasalocid as dietary admixes for 31 days respectively. […] Tables 12 and 13 describe the effects of dinitrodescarboxylasalocid (150 mg/kg b.i.d. by oral intubation) in genetically obese and lean Zucker rats for 21 days.

## CC[C@@H](C(=O)[C@@H](C)[C@@H](O)[C@H](C)CCc1c([N+](=O)[O-])cc(C)c(O)c1[N+](=O)[O-])[C@H]1O[C@](CC)([C@H]2CC[C@](O)(CC)[C@H](C)O2)C[C@@H]1C [Dinitrodescarboxylasalocid]
Human pancreatic lipase
  type of inhibition from Dixon plots: suggested competitive inhibition
Human pancreatic lipase; in vitro Radiometer assay, read-out: inhibition constant (Ki)
  Ki: 20 µM
[1]; 56 mg/kg p.o.
  Area under curve (corn oil absorption): 1213
  Area under curve, % of control: 86 % of control
[1]; 120 mg/kg p.o.
  Area under curve (corn oil absorption): 1072
  Area under curve, % of control: 76 % of control
[1]; 240 mg/kg p.o.
  Area under curve (corn oil absorption): 564
  Area under curve, % of control: 40 % of control
Pancreatic lipase
  IC50: 400 µM
[2]; 60 mg/kg dietary admix
  Body Weight Gain: 64 ± 6 g
  Body Weight final: 255 ± 8 g
  Fat Absorption: 95.6 ± 0.6%
  Food Consumption: 17.4 ± 0.6 g/day
  Food Efficiency: 0.115 ± 0.010 g gained/g consumed
[2]; 60 mg/kg
  Serum Cholesterol: 106 ± 6 mg/100 ml
  Serum Free Fatty Acids: 469 ± 46 μeq/l
  Serum Glucose: 173 ± 5 mg/100 ml
  Serum IRI (immunoreactive insulin): 1.8 ± 0.2 ng/mL
  Serum Triglycerides: 73 ± 3 mg/100 ml
[2]; 120 mg/kg dietary admix
  Body Weight Gain: 66 ± 8 g
  Body Weight final: 256 ± 10 g
  Fat Absorption: 95.8 ± 0.6%
  Food Consumption: 19.0 ± 0.5 g/day
  Food Efficiency: 0.109 ± 0.014 g gained/g consumed
[2]; 120 mg/kg
  Serum Cholesterol: 88 ± 6 mg/100 ml
  Serum Free Fatty Acids: 425 ± 45 μeq/l
  Serum Glucose: 164 ± 5 mg/100 ml
  Serum IRI (immunoreactive insulin): 2.0 ± 0.2 ng/mL
  Serum Triglycerides: 64 ± 5 mg/100 ml
[2]; 240 mg/kg dietary admix
  Body Weight Gain: 51 ± 3 g
  Body Weight final: 246 ± 4 g
  Fat Absorption: 88.1 ± 1.7%
  Food Consumption: 17.6 ± 0.5 g/day
  Food Efficiency: 0.083 ± 0.011 g gained/g consumed
[2]; 240 mg/kg
  Serum Cholesterol: 155 ± 9 mg/100 ml
  Serum Free Fatty Acids: 423 ± 61 μeq/l
  Serum Glucose: 155 ± 8 mg/100 ml
  Serum IRI (immunoreactive insulin): 1.7 ± 0.2 ng/mL
  Serum Triglycerides: 51 ± 4 mg/100 ml
[2]; 60, 120 and 240 mg/kg dietary admix
  Body weight gain compared to controls and the respective pair-fed groups (FIG. 2): reduced significantly only at the 240 mg/kg dose
